Results taken from patent US9249129B2, “Morpholino substituted urea derivatives as mTOR inhibitors” (CELLZOME LIMITED, priority 2010, dated 2016).
Read-outs that look alike come from different tables or passages of the source.

What was measured:
mTOR = target: T1, mTOR (Homo sapiens, UniProt P42345); assay: mTOR kinobeads assay (dot blot detection); format: binding
T1 construct: endogenous in cells; host or cells: Jurkat cells (ATCC TIB-152, clone E6-1), lysate
Summary of the method: (§1)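 Jurkat cell lysate (5 mg/ml protein) was incubated with test compounds and kinobeads (immobilized phenylthiazole and phenylmorpholin-chromen ligands) for 2 h in the cold with shaking. Bead-bound kinase was SDS-eluted and quantified by antibody dot blot with infrared detection. IC50 values came from dose-response curves.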

PI3K delta (PI3Kd) = target: T2, PI3K delta (PI3Kd) (Homo sapiens, UniProt O00329); assay: kinobeads assay, PI3K delta (dot blot detection); format: binding
T2 construct: endogenous in cells; host or cells: Jurkat cells (ATCC TIB-152, clone E6-1), lysate
Summary of the method: as §1

[1] = target: T3, DNA-dependent protein kinase (DNA-PK) (Homo sapiens, UniProt P78527); assay: kinobeads assay, DNA-PK (dot blot detection); format: binding
T3 construct: endogenous in cells; host or cells: Jurkat cells (ATCC TIB-152, clone E6-1), lysate
Summary of the method: as §1

PI3Kα = target: T4, PI3Kα (Homo sapiens, UniProt P42336); assay: kinobeads assay, PI3K alpha (dot blot detection); format: binding; conditions: Table 4, read-out: Inhibition values (IC50) PI3Ka
T4 construct: endogenous in cells; host or cells: Jurkat cells (ATCC TIB-152) lysate, the only lysate described

PI3Kβ = target: T5, PI3Kβ (Homo sapiens, UniProt P42338); assay: kinobeads assay, PI3K beta (dot blot detection); format: binding; conditions: Table 4, read-out: Inhibition values (IC50) PI3Kb
T5 construct: endogenous in cells; host or cells: Jurkat cells (ATCC TIB-152) lysate, the only lysate described

PI3Kγ = target: T6, PI3Kγ (Homo sapiens, UniProt P48736); assay: kinobeads assay, PI3K gamma (dot blot detection); format: binding; conditions: Table 4, read-out: Inhibition values (IC50) PI3Kg
T6 construct: endogenous in cells; host or cells: Jurkat cells (ATCC TIB-152) lysate, the only lysate described

[2] = tested on: S6RP serine-240/244 phosphorylation in HEK293T/17 cells; assay: In vitro phospho-S6 cellular assay (pS6RP S240/244); format: cell-based; conditions: Homo sapiens, Table 6, 2 hours, S6RP Ser240/244, read-out: pS6 (phospho-S6 cell assay data, activity level)
Summary of the method: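 HEK293T/17 cells in DMEM with 2% FCS treated with 8 compound concentrations (0.1% DMSO) for 2 h at 37 °C, then lysed. Phospho-S6RP Ser240/244 or phospho-Akt Ser473 quantified by MesoScale sandwich immunoassay with Sulfo-Tag detection; IC50 from variable-slope sigmoidal fit.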

[3] = Table 2, Jurkat cell lysate, read-out: Inhibition values (IC50) mTor
[4] = Table 4, read-out: Inhibition values (IC50) mTOR
[5] = Table 2, Jurkat cell lysate, read-out: Inhibition values (IC50) PI3Kd
[6] = Table 4, read-out: Inhibition values (IC50) PI3Kd
[7] = Table 2, Jurkat cell lysate, read-out: Inhibition values (IC50) DNAPK
[8] = Table 4, read-out: Inhibition values (IC50) DNAPK

T6 sequence (P48736 whole entry): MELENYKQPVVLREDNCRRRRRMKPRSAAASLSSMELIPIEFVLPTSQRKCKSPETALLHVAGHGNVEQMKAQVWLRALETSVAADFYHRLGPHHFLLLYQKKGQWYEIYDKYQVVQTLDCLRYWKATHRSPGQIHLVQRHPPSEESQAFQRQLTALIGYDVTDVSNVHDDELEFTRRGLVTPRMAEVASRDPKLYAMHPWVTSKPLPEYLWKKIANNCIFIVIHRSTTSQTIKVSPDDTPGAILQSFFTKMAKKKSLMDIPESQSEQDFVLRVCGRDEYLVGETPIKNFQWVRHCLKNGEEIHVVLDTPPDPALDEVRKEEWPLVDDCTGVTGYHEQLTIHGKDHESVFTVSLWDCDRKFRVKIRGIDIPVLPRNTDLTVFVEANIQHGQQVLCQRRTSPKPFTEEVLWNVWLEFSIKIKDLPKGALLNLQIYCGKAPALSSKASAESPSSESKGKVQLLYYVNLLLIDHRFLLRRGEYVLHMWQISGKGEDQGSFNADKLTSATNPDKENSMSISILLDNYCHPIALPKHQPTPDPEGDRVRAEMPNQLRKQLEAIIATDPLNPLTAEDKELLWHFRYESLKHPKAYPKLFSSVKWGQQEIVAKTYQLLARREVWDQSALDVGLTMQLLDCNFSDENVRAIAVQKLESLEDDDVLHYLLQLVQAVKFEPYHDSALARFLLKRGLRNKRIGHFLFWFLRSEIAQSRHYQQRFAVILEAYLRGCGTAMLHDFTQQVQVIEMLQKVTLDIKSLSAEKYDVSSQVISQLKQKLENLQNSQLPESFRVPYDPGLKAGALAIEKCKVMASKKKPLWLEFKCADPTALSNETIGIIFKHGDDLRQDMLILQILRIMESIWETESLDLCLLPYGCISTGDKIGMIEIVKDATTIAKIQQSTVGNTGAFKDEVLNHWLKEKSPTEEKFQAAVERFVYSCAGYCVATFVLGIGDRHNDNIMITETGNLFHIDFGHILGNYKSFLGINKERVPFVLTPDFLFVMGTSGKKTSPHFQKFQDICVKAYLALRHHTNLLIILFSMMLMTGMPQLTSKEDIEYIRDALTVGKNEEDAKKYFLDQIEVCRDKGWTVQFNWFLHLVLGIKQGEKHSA
T5 sequence (P42338 whole entry): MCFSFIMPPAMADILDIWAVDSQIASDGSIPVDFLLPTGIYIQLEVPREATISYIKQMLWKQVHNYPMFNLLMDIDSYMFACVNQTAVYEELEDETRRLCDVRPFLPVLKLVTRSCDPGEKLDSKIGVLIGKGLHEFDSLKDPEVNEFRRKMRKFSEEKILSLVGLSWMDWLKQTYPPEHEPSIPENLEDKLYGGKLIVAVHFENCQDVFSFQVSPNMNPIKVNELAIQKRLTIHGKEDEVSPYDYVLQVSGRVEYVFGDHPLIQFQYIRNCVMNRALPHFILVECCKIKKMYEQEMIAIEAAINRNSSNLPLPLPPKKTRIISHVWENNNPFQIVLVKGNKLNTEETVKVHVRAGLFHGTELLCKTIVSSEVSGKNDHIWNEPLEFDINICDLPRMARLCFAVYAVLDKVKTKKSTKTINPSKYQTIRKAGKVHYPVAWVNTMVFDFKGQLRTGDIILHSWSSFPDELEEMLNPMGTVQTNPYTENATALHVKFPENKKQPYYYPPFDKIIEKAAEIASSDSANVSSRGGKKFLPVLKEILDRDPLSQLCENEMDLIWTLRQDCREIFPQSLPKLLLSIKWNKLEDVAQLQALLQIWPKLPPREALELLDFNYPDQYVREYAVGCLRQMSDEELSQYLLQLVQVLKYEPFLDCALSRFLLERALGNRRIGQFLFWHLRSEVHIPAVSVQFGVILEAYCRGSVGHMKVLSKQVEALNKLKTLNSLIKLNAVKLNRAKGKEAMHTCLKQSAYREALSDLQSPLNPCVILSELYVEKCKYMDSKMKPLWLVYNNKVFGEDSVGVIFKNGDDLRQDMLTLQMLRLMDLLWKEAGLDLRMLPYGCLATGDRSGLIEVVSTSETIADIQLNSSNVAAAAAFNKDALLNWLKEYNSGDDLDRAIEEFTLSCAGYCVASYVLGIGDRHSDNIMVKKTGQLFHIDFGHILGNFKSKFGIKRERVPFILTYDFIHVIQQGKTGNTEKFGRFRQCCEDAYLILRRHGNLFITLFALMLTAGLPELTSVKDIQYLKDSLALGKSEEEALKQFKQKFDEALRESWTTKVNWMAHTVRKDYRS
T5 sequence (P27986 whole entry partner): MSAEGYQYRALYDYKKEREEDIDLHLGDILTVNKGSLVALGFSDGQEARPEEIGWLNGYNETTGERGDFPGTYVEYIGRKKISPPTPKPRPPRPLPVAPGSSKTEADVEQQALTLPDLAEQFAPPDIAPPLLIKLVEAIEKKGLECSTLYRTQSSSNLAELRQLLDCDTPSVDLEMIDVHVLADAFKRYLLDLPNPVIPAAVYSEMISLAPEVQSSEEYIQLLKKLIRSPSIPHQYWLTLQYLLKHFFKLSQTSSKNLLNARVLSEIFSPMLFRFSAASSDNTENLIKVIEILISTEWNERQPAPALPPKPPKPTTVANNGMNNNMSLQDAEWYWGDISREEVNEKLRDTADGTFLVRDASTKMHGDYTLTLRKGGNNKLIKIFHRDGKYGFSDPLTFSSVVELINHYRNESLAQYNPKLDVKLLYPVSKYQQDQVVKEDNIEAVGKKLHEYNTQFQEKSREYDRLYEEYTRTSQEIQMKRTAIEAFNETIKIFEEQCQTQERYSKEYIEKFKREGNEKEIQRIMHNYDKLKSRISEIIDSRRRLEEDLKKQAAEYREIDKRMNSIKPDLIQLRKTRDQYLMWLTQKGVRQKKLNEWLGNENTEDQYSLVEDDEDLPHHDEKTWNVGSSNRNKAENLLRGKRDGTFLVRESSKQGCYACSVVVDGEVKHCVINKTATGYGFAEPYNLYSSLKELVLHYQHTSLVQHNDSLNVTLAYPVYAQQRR
T4 sequence (P42336 whole entry): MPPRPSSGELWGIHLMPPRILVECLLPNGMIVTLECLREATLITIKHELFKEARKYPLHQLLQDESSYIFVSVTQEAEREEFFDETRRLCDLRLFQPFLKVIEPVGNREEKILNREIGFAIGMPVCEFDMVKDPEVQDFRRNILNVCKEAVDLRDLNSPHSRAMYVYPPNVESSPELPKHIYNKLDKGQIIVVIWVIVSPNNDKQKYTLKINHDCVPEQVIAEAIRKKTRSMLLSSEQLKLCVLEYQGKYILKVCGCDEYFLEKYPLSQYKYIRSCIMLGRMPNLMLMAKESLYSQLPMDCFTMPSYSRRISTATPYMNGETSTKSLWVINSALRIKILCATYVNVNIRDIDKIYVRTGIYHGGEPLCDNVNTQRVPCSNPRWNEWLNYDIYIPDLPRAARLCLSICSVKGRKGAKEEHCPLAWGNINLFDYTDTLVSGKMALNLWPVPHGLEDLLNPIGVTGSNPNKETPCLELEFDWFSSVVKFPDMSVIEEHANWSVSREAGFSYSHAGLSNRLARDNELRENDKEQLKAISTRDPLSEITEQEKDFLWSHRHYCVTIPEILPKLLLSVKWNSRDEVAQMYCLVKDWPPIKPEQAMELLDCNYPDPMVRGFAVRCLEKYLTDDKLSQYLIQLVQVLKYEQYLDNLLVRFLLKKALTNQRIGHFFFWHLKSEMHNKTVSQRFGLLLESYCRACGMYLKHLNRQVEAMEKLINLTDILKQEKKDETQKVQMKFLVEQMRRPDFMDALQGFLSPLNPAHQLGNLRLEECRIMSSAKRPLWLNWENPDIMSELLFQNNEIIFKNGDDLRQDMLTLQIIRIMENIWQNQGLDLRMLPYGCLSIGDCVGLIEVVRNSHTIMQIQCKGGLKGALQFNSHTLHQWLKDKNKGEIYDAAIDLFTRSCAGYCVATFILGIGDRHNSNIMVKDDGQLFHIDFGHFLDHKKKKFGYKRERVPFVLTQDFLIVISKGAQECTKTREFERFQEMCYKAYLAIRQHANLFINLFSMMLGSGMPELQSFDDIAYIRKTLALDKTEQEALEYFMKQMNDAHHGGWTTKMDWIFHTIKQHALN
T4 sequence (P27986 whole entry partner): as the sequence (P27986 whole entry partner) above
T2 sequence (O00329 whole entry): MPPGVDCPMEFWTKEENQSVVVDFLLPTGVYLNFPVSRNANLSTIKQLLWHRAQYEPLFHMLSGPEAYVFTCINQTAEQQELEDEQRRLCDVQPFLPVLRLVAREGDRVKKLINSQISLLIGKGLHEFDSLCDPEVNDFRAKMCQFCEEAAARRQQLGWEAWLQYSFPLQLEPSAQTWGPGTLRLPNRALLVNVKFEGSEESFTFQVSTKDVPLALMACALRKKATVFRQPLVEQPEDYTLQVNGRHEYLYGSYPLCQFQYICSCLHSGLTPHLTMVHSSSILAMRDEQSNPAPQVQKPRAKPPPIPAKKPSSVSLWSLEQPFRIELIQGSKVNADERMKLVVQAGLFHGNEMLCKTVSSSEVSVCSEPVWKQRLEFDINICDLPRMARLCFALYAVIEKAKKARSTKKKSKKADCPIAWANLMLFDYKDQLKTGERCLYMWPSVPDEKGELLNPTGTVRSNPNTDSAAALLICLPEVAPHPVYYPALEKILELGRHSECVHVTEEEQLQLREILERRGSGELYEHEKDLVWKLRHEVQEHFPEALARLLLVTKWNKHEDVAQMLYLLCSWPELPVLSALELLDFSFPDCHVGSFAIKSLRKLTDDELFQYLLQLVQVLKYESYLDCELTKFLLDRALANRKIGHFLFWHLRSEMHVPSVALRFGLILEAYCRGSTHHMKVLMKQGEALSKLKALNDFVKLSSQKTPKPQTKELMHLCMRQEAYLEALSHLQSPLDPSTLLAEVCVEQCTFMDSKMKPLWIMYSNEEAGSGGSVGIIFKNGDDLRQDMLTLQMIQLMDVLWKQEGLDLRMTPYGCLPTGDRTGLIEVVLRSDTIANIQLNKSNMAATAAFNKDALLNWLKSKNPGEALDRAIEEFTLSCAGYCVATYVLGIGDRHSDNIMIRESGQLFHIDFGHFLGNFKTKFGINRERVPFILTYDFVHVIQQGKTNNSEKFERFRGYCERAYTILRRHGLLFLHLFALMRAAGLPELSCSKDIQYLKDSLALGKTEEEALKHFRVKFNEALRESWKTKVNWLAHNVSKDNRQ
T2 sequence (P27986 whole entry partner): as the sequence (P27986 whole entry partner) above

Row | SMILES | IC50 (mTOR; [3]) [µM] | IC50 (mTOR; [4]) [µM] | IC50 (PI3K delta (PI3Kd); [5]) [µM] | IC50 (PI3K delta (PI3Kd); [6]) [µM] | IC50 [1, 7] [µM] | IC50 [1, 8] [µM] | IC50 (PI3Kα) [µM] | IC50 (PI3Kβ) [µM] | IC50 (PI3Kγ) [µM] | IC50 [2] [µM]
1 | C[C@H]1COCCN1c1cc(-c2cncc(F)c2)nc(-c2ccc(NC(=O)NCCF)cc2F)n1 [Example 67, (S)-1-(3-fluoro-4-(4-(5-fluoropyridin-3-yl)-6-(3-methylmorpholino)pyrimidin-2-yl)phenyl)-3-(2-fluoroethyl)urea] | 1 to 10 | 1 to 10 | ≥ 10 | ≥ 10 | ≥ 10 | ≥ 10 | ≥ 10 | ≥ 10 | ≥ 10 | 0.1 to 1
2 | C[C@H]1COCCN1c1cc(-c2cc(F)ccc2S(C)(=O)=O)nc(-c2ccc(NC(=O)NCCF)cc2F)n1 [Example 68, (S)-1-(3-fluoro-4-(4-(5-fluoro-2-(methylsulfonyl)phenyl)-6-(3-methylmorpholino)pyrimidin-2-yl)phenyl)-3-(2-fluoroethyl)urea] | 1 to 10 | 1 to 10 | ≥ 10 | ≥ 10 | ≥ 10 | ≥ 10 | ≥ 10 | ≥ 10 | ≥ 10 | 0.1 to 1
3 | C[C@H]1COCCN1c1nc(-c2ccc(NC(=O)NC(C)(C)CO)cc2)cc(-c2cc(F)ccc2S(C)(=O)=O)n1 [Example 69, (S)-1-(4-(6-(5-fluoro-2-(methylsulfonyl)phenyl)-2-(3-methylmorpholino)pyrimidin-4-yl)phenyl)-3-(1-hydroxy-2-methylpropan-2-yl)urea] | 1 to 10 | 1 to 10 | ≥ 10 | ≥ 10 | ≥ 10 | ≥ 10 | ≥ 10 | ≥ 10 | ≥ 10 | < 0.1
4 | C[C@H]1COCCN1c1nc(-c2ccc(NC(=O)NCC(N)=O)cc2)cc(-c2cc(F)ccc2S(C)(=O)=O)n1 [Example 70, (S)-2-(3-(4-(6-(5-fluoro-2-(methylsulfonyl)phenyl)-2-(3-methylmorpholino)pyrimidin-4-yl)phenyl)ureido)acetamide] | 1 to 10 | 1 to 10 | ≥ 10 | ≥ 10 | ≥ 10 | ≥ 10 | ≥ 10 | ≥ 10 | ≥ 10 | 0.1 to 1
5 | CC(O)CNC(=O)Nc1ccc(-c2cc(-c3cc(F)ccc3S(C)(=O)=O)nc(N3CCOC[C@@H]3C)n2)cc1 (stereo partly drawn) [Example 71, 1-(4-(6-(5-fluoro-2-(methylsulfonyl)phenyl)-2-((S)-3-methylmorpholino)pyrimidin-4-yl)phenyl)-3-(2-hydroxypropyl)urea] | 0.1 to 1 | 0.1 to 1 | ≥ 10 | ≥ 10 | ≥ 10 | ≥ 10 | ≥ 10 | ≥ 10 | ≥ 10 | < 0.1
6 | C[C@H]1COCCN1c1cc(-c2cc(F)ccc2S(C)(=O)=O)nc(-c2ccc(NC(=O)NCCO)cc2F)n1 [Example 72, (S)-1-(3-fluoro-4-(4-(5-fluoro-2-(methylsulfonyl)phenyl)-6-(3-methylmorpholino)pyrimidin-2-yl)phenyl)-3-(2-hydroxyethyl)urea] | 0.1 to 1 | 0.1 to 1 | ≥ 10 | ≥ 10 | ≥ 10 | ≥ 10 | ≥ 10 | ≥ 10 | ≥ 10 | 0.1 to 1
7 | C[C@H](CO)NC(=O)Nc1ccc(-c2cc(-c3cc(F)ccc3S(C)(=O)=O)nc(N3CCOC[C@@H]3C)n2)cc1 [Example 73, 1-(4-(6-(5-fluoro-2-(methylsulfonyl)phenyl)-2-((S)-3-methylmorpholino)pyrimidin-4-yl)phenyl)-3-((R)-1-hydroxypropan-2-yl)urea] | – | 0.1 to 1 | – | ≥ 10 | – | ≥ 10 | ≥ 10 | ≥ 10 | ≥ 10 | < 0.1
